Entries after “also recorded” stand apart in the source; their conditions may differ.
Assays:
SCN5A [1] = biological target: T1, SCN5A (Rattus norvegicus, UniProt P15389); assay: Ex vivo F-18 autoradiography of rat myocardium; format: binding
T1 construct: Heart sections ([…] thickness) were prepared using a −20° C. cryostat and thaw-mounted onto gelatin-coated slides; from tissue; host or cells: rat heart (myocardium) cryosections
Method: Heart sections ([…] thickness) were prepared using a −20° C. cryostat and thaw-mounted onto gelatin-coated slides. The slides were stored at −20° C. until the day of the experiment. […] Individual images of sections were cropped using ImageJ with no additional adjustment to color levels/thresholds. The experimental setup was designed such that both baseline and competition experiments contained the same amount of radioactivity and were imaged on the same screen. […] For variation of washing times, the incubation was held constant at 15 min.

rat myocardium = assay: Rodent PET-CT imaging of the myocardium, single bolus and bolus+infusion, with lidocaine block; format: in vivo
Method: Male Sprague-Dawley rats (400-500 g) were anesthetized with inhalational isoflurane (Forane) (3% in a carrier of 1.5-2 L/min medical oxygen for induction and 2% isoflurane for maintenance of anesthesia during the scan). Lateral tail vein catheters were placed for intravenous (i.v.) injection of the compounds. Two rats were arranged head-to-head in a Triumph Trimodality PET/CT/SPECT scanner (Gamma Medica, Northridge, Calif.) or a MicroPET P4 scanner. […] Dynamic PET acquisition was performed over 45 min and was followed by computed tomography (CT) for anatomic coregistration and attenuation correction. […] Reconstructed images were exported from the scanner in DICOM format along with an anatomic CT for rodent studies. These files were imported to AMIDE and Gaussian filtered (kernel size=15, fwhm=1.5 mm). Regions of interest (ROIs) were drawn manually at the lung and myocardium guided by high-resolution CT structural images and summed PET data. Time-activity-curves (TACs) were exported in terms of decay corrected activity per unit volume at specified time points with gradually increasing intervals.

[2] = system: myocardium of non-human primates; assay: PET/MR imaging of non-human primates; format: in vivo
Method: Two female baboons (Papio anubis, weight=15.2±1.6 kg) were deprived of food for 12 h prior to the study. Anesthesia was induced with intramuscular ketamine (10 mg/kg) and xylazine (0.5 mg/kg). After endotracheal intubation, the baboons were catheterized antecubitally for injection of the radiolabeled compound. Anesthesia was maintained using isoflurane (1-1.5%, 100% oxygen, 1 L/min) during the scan, and ketamine/xylazine effects were reversed with yobine (0.11 mg/kg, i.m.) before image acquisition. Vital signs, including heart rate, respiration rate, blood pressure, O2 saturation, and end tidal CO2, were monitored continuously and recorded every 15 min. Simultaneous PET/MR data were acquired using a Siemens Biograph mMR system (Siemens Healthcare, Erlangen, Germany). Each animal underwent a baseline and a blocking scan on two separate days. MR body imaging was performed with real-time respiratory bellow gating and using the body matrix coil and the built-in spine coil as the receiving coil elements. High-resolution anatomical T1-weighted, dual echo, gradient echo sequence was acquired with the following parameters: TR=194 ms, TE1/TE2=1.23/2.46 ms, matrix size 256×256, FOV=35 cm, phase FOV 65.6% (in-plane resolution=1.4 mm), 4 mm slice thickness, and 80 slices. For the purpose of MR-based attenuation correction of the PET data, a T1-weighted, 2-point Dixon 3D volumetric interpolated breath-hold examination (VIBE) scan was obtained. PET data were obtained using a single-bed position with an axial field of view of 25.8 cm, and a transverse field of view of 59.4 cm. PET data were acquired dynamically for 60 min (bolus injection of N-(2,6-dimethylphenyl)-2-(ethyl(2-(fluoro-^18F)ethyl)amino)acetamide) or 90 min (bolus/infusion of N-(2,6-dimethylphenyl)-2-(ethyl(2-(fluoro-^18F)ethyl)amino)acetamide) after intravenous administration of N-(2,6-dimethylphenyl)-2-(ethyl(2-(fluoro-^18F)ethyl)amino)acetamide (5.0±0.2 mCi bolus or 4 mCi bolus+4 mCi infusion). […] Standard uptake unit (SUV) was calculated as the mean radioactivity per injected dose per weight.

SCN5A [3] = biological target: T2, SCN5A (Homo sapiens, UniProt Q14524); assay: Ex vivo autoradiography of human heart tissue, self-displacement dose-response; format: binding; conditions: self-inhibition, modified Cheng-Prusoff equation
T2 construct: Non-failing human donor heart samples were compared to explanted tissue from patients who had suffered from heart failure; from tissue; host or cells: human left ventricular myocardium (non-failing donor hearts and explanted DCM-failing hearts)
T2 sequence (Q14524 whole entry): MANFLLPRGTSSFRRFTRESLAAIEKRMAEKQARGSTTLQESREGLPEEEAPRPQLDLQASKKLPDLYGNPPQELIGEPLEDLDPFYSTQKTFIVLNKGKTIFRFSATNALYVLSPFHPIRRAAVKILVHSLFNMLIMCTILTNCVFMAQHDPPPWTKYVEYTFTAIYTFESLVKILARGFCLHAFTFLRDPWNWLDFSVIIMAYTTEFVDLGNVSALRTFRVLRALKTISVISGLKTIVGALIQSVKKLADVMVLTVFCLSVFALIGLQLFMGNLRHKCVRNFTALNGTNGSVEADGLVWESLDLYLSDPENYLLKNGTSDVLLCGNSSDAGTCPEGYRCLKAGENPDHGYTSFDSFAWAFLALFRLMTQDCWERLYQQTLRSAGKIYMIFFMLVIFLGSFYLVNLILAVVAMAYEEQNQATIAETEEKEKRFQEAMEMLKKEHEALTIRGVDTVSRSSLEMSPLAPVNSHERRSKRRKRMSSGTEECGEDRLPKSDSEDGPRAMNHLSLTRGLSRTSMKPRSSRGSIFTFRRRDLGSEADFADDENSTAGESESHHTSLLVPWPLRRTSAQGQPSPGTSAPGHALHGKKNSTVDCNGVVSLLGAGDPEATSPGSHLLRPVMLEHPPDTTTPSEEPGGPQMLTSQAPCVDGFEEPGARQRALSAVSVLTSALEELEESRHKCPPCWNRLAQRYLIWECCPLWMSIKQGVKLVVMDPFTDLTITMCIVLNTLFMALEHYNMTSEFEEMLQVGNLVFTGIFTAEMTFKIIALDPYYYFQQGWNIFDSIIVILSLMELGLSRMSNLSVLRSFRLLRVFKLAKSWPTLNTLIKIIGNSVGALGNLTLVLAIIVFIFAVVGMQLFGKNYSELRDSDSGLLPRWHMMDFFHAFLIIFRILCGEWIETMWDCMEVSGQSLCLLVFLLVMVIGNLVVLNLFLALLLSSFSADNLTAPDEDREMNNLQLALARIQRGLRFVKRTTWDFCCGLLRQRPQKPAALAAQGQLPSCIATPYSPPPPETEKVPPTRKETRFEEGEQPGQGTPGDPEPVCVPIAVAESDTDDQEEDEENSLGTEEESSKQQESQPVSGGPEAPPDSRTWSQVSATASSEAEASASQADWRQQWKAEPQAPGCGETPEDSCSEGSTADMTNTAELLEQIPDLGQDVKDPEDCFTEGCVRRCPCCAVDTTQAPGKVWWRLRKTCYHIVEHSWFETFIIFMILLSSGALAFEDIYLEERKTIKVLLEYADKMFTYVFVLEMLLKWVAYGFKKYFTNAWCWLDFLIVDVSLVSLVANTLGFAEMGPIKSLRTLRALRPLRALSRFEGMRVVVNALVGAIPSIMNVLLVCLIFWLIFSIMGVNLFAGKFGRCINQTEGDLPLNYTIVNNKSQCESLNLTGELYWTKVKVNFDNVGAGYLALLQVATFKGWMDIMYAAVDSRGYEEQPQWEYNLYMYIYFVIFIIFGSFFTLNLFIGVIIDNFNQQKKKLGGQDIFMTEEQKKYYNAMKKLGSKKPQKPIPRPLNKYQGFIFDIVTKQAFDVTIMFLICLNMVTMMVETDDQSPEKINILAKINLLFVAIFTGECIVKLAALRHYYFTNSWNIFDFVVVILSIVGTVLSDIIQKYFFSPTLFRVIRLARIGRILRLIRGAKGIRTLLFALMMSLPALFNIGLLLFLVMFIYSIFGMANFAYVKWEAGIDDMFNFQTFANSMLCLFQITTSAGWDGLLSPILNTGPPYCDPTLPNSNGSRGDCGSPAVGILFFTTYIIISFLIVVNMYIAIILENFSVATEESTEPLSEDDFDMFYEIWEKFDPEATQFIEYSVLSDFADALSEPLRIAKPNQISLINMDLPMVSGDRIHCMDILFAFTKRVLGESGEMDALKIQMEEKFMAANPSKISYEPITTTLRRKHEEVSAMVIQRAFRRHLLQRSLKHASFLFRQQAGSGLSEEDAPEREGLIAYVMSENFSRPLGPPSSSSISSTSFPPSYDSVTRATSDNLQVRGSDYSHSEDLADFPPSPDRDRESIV
Text: Non-failing human donor heart samples were compared to explanted tissue from patients who had suffered from heart failure due to idiopathic dilated cardiomyopathy (DCM) and required cardiac transplantation, as shown in FIGS. 4A-4B (see e.g., Japp et al, J. Am. Coll. Cardiol. 2016, 67:2996-3010).
To exclude that the reduced signal was the result of a decrease in affinity in diseased vs. healthy tissue and confirm a deficit in channel density, dose-response experiments were performing using N-(2,6-dimethylphenyl)-2-(ethyl(2-fluoroethyl)amino)acetamide as the competition ligand. Using the modified Cheng-Prusoff equation for self-inhibition, these measurements allowed for the determination of Kd-values for the groups NF1 and F1, as shown in FIG. 4B. […] A ˜30% reduction in Bmax was observed.

T1 sequence (P15389 whole entry): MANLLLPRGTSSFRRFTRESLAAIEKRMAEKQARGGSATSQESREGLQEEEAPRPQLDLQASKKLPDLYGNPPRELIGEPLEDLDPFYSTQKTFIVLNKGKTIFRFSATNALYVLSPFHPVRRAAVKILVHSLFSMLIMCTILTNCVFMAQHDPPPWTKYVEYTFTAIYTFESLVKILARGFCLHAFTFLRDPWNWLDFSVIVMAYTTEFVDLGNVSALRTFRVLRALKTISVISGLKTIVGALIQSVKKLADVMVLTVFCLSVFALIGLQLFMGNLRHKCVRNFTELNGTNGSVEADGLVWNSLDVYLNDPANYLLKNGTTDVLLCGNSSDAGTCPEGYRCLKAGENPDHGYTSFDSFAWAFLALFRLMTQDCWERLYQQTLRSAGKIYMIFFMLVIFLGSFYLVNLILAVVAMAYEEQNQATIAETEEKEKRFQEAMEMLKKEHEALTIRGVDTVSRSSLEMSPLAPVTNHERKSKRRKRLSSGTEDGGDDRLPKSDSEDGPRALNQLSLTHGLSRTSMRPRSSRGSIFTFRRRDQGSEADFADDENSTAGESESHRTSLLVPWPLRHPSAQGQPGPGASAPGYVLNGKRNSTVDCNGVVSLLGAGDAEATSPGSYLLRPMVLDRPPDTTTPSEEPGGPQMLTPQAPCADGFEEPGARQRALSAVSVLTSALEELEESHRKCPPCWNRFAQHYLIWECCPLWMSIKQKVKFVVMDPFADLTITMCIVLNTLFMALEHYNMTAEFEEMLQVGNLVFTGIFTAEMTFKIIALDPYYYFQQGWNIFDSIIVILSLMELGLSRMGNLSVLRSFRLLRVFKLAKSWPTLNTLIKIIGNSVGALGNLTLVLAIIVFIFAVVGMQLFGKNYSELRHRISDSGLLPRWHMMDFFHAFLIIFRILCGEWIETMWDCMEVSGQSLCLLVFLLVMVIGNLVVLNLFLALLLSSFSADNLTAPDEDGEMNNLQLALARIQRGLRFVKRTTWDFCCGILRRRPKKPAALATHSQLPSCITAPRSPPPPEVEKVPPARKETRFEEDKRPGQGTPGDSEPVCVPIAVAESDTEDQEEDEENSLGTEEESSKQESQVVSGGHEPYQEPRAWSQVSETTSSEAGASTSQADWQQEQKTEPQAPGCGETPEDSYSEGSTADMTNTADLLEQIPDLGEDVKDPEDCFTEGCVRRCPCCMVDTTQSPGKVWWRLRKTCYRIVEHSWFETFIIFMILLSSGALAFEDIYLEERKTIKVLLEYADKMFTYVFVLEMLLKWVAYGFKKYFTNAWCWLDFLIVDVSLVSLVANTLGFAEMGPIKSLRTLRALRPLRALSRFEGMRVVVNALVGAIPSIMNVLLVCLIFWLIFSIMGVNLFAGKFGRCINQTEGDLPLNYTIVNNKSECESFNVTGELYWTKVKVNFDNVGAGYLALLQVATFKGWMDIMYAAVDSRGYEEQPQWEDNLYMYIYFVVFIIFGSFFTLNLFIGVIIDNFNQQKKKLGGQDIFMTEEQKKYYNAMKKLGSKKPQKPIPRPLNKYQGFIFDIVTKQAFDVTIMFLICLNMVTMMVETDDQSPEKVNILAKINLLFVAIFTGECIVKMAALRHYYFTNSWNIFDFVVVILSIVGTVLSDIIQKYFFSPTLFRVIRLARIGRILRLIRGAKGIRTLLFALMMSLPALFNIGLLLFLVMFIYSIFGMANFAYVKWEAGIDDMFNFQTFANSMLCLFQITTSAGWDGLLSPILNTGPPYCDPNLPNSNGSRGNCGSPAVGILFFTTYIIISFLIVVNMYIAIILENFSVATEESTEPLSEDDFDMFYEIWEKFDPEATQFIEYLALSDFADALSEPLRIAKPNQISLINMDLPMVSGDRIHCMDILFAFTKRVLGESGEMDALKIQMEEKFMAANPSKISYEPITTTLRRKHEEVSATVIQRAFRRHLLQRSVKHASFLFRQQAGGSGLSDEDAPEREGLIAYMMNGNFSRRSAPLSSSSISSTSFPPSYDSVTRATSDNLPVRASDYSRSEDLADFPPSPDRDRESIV

CCN(CC[18F])CC(=O)Nc1c(C)cccc1C [Example 2, N-(2,6-dimethylphenyl)-2-(ethyl(2-(fluoro-^18F)ethyl)amino)acetamide]
reduction of total binding on wash-out (SCN5A [1]; after 1 min wash, incubation 15 min): 50% | incubation time after which specific binding (BS) reached a constant level (SCN5A [1]; incubation times 1, 5, 10, 20 min, wash 1 min): 5 min | specific binding (BS) as share of overall binding (SCN5A [1]; rat myocardial slices 20 μm, self-competition with excess (500 μM) unlabeled compound): ~70% | residence time (t1/2^−1) of the radiotracer (rat myocardium; from time course of signal reduction after lidocaine, estimation): ~1 min⁻¹ | time to stable baseline signal (rat myocardium; i.v. bolus ~150 μCi followed by constant infusion ~300 μCi over 60 min): 20 min | time for tracer bolus to reach peak signal (rat myocardium; single bolus): 3 min | time after bolus injection at which blood pool had cleared and myocardial signal was revealed (rat myocardium; single i.v. bolus): 3 min | myocardial baseline signal (rat myocardium; single i.v. bolus, healthy rats): up to 2 % ID/cc | estimated residence time ([2]; bolus 4 mCi + infusion 4 mCi over 90 min, lidocaine challenge): 5 min⁻¹ | time after which blood background cleared ([2]; single bolus, healthy baboon): 2 to 3 min

CCN(CCF)CC(=O)Nc1c(C)cccc1C [Example 1, N-(2,6-dimethylphenyl)-2-(ethyl(2-fluoroethyl)amino)acetamide]
Kd-values, non-failing (NF1) vs failing (F1) left ventricular tissue (SCN5A [3]): no difference in Kd-values between the groups | level of non-specific / non-displaceable binding (BNS) as competition ligand (SCN5A [1]; competition ligands at the same concentration against the 18F tracer): same level of BNS as lidocaine; also recorded: same level of non-displaceable binding

CCN(CC)CC(=O)Nc1c(C)cccc1C [lidocaine, reference compound]
time to plateau of full block after the pharmacological dose (rat myocardium; 5 mg/kg lidocaine): 3 minutes | reduction of tracer signal by in-scan lidocaine challenge (rat myocardium; 5 mg/kg lidocaine i.v., bolus+infusion paradigm): complete reduction of the radiolabeled compound signal to background level | lidocaine dose from which reduction of myocardial tracer signal was observed (rat myocardium; i.v. 5 min before tracer, compared to vehicle): 0.1 mg/kg | in vivo IC50 at the myocardium (rat myocardium; in-scan lidocaine challenges 0.5-5 mg/kg i.v., bolus+infusion, estimation): ~0.7 mg/kg | effect of lidocaine pre-block on myocardial tracer signal ([2]; 5 mg/kg i.v. lidocaine 5 min prior to tracer): blocked the myocardial signal; also recorded: suppressed the myocardial signal to background levels

Reference: patent publication US11673855B2, “Voltage gated sodium channel imaging agents” (The General Hospital Corporation, priority 2017, dated 2023)
